The source of these data is ChEMBL document CHEMBL4002601, “A triple exon-skipping luciferase reporter assay identifies a new CLK inhibitor pharmacophore” (Bioorg Med Chem Lett, 2017).

Assay [1] has as its target Dual specificity mitogen-activated protein kinase kinase 1 (Homo sapiens) (UniProt Q02750). The assay is described as follows: Inhibition of human MEK1 using inactive MAPK2 as substrate in presence of [gamma-33P]ATP at 1 uM after 40 mins by scintillation counter method.
Assay [2] has as its target Serine/threonine-protein kinase PLK1 (Homo sapiens) (UniProt P53350). The assay is described as follows: Inhibition of human Plk1 using casein as substrate in presence of [gamma-33P]ATP at 1 uM after 40 mins by scintillation counter method.
For assay [3], the target named is PI3-kinase p110-alpha/p85-alpha (Homo sapiens) (UniProt P27986+P42336). The assay is described as follows: Inhibition of human PI3K p110alpha/pI3K p85alpha at 1 uM using PIP2 as substrate in presence of biotinylated PIP3 and ATP and measured after 30 mins by HTRF method. Type of assay: protein-complex assay.
Assay [4] has as its target Tyrosine-protein kinase ABL1 (Homo sapiens) (UniProt P00519). The assay is described as follows: Inhibition of human Abl using EAIYAAPFAKK as substrate in presence of [gamma-33P]ATP at 1 uM after 40 mins by scintillation counter method.
Assay [5] deals with Receptor-type tyrosine-protein kinase FLT3 (Homo sapiens) (UniProt P36888). The assay is described as follows: Inhibition of human Flt3 using EAIYAAPFAKKK as substrate in presence of [gamma-33P]ATP at 1 uM after 40 mins by scintillation counter method.
Chain of Receptor-type tyrosine-protein kinase FLT3 (Homo sapiens) (P36888 whole entry): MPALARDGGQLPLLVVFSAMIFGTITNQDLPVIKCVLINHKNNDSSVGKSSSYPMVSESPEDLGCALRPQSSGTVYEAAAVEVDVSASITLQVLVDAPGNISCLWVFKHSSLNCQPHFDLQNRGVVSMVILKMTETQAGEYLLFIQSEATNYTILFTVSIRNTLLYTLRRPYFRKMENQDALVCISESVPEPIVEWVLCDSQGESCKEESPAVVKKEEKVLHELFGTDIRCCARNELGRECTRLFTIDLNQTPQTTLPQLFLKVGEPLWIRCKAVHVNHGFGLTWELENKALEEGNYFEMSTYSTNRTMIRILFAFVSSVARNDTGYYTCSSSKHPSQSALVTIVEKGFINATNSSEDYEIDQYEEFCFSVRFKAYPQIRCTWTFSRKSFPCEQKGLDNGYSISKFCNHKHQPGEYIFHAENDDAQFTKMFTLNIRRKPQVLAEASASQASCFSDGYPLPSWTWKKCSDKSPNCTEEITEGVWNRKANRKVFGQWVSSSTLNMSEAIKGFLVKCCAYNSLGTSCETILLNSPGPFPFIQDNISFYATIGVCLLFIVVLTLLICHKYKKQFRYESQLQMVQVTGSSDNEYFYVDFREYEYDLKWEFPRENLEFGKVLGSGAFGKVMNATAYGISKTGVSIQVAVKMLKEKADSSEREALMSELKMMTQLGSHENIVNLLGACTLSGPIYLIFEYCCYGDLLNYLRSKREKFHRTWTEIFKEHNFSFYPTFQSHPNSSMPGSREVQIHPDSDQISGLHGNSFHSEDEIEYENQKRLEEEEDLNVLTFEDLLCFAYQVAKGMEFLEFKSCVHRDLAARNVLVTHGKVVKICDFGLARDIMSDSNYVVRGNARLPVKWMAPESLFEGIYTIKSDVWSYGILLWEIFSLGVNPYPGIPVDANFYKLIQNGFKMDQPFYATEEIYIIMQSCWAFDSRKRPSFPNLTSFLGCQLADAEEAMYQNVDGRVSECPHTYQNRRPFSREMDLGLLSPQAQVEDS
In assay [6] the target is Serine/threonine-protein kinase B-raf (Homo sapiens) (UniProt P15056). Put plainly: Inhibition of human BRAF using myelin basic protein as substrate in presence of [gamma-33P]ATP at 1 uM after 40 mins by scintillation counter method.
For assay [7], the target named is Dual specificity protein kinase CLK1 (Homo sapiens, UniProt P49759). Put plainly: Inhibition of CLK mediated SF3B1 activation in human SK-MEL-2 cells assessed as MDM2-pre mRNA exon skipping at 10 uM after 4 hrs by luciferase reporter gene assay relative to control. Type of assay: cell-based.
In assay [8] the target is PI3-kinase p110-delta/p85-alpha (Homo sapiens) (UniProt P27986+O00329). Put plainly: Inhibition of human PI3K p110delta/pI3K p85alpha at 1 uM using PIP2 as substrate in presence of biotinylated PIP3 and ATP and measured after 30 mins by HTRF method. It counts as protein-complex assay. Background: In TR-FRET formats the signal depends on donor and acceptor labels being close together.

In assay [9] the target is Mitogen-activated protein kinase 9 (Homo sapiens) (UniProt P45984). Put plainly: Inhibition of human JNK2alpha2 using ATF2 as substrate in presence of [gamma-33P]ATP at 1 uM after 40 mins by scintillation counter method.
Chain of Mitogen-activated protein kinase 9 (Homo sapiens) (P45984 whole entry, looked up, the tested form may be a part): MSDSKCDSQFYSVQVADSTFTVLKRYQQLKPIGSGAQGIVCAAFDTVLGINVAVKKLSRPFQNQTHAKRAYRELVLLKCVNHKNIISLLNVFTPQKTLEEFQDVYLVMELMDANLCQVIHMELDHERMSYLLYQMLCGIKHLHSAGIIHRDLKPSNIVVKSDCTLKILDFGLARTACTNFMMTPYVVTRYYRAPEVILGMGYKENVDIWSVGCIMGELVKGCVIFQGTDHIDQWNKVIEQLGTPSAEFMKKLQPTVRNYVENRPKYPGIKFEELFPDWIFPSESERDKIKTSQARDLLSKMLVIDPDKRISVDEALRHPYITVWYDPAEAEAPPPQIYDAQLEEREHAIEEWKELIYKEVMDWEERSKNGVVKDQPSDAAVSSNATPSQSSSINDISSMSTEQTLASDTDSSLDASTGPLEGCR
The target of assay [10] is Proto-oncogene tyrosine-protein kinase Src (Homo sapiens) (UniProt P12931). The assay is described as follows: Inhibition of human Src (1 to 530 residues) using GGEEEEYFELVKKKK as substrate in presence of [gamma-33P]ATP at 1 uM after 40 mins by scintillation counter method.
Chain of Proto-oncogene tyrosine-protein kinase Src (Homo sapiens) (P12931 2-536 limits assumed): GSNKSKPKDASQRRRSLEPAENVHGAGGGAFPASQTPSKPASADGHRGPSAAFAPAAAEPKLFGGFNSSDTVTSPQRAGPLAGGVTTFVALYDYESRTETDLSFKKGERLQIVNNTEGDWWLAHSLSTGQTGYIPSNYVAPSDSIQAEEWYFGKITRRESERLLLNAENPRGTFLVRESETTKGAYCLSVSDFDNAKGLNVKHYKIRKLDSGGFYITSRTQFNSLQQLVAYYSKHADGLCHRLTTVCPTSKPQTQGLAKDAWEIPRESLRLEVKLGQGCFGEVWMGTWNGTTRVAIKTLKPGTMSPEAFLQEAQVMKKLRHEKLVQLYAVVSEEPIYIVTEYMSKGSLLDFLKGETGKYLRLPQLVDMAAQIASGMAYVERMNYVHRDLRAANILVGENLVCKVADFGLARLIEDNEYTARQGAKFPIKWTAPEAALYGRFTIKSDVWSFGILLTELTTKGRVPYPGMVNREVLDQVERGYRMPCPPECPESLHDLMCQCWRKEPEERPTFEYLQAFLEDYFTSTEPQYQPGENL
The target in assay [11] is T1, Tyrosine-protein kinase JAK3 (Homo sapiens) (UniProt P52333).
T1 sequence (whole entry): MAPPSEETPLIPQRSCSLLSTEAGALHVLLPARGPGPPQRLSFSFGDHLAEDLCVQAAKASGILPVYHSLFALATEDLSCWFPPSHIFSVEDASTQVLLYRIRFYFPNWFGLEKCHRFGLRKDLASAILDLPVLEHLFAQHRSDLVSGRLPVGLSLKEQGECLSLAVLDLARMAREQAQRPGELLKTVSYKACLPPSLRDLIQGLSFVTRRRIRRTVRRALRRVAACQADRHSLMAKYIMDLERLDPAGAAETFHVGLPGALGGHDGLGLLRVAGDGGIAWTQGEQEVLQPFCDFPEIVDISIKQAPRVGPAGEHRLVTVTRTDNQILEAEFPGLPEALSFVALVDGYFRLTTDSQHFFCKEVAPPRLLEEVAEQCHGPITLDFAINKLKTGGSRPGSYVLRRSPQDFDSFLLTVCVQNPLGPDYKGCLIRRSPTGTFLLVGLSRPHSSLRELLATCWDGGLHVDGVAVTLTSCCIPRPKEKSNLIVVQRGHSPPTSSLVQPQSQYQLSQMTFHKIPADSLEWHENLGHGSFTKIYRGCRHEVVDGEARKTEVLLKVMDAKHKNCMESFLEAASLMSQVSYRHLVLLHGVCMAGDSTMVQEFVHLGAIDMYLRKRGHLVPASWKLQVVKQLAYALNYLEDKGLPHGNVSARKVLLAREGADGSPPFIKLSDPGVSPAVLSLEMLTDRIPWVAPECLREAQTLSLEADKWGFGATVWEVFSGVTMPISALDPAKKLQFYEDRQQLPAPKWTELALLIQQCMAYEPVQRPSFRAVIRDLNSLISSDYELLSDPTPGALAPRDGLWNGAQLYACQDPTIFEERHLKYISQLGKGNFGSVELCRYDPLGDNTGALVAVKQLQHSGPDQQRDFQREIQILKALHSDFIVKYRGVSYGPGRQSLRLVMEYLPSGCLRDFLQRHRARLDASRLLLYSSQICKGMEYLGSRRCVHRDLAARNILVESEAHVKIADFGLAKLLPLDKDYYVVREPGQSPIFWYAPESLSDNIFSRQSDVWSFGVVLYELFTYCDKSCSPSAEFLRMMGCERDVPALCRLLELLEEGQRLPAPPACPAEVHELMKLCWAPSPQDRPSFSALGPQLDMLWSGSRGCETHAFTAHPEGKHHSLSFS
The assay is described as follows: Inhibition of human JAK3 using GGEEEEYFELVKKKK as substrate in presence of [gamma-33P]ATP at 1 uM after 40 mins by scintillation counter method.

Assay [12] concerns the target Dual specificity tyrosine-phosphorylation-regulated kinase 1A (Homo sapiens) (UniProt Q13627). The assay is described as follows: Inhibition of human DYRK1A using RRRFRPASPLRGPPK as substrate in presence of [gamma-33P]ATP at 1 uM after 40 mins by scintillation counter method.
In assay [13] the target is Tyrosine-protein kinase JAK2 (Homo sapiens) (UniProt O60674). Put plainly: Inhibition of human JAK2 using KTFCGTPEYLAPEVRREPRILSEEEQEMFRDFDYIADWC as substrate in presence of [gamma-33P]ATP at 1 uM after 40 mins by scintillation counter method.
Assay [14] concerns the target Mitogen-activated protein kinase 8 (Homo sapiens) (UniProt P45983). Put plainly: Inhibition of human JNK1alpha1 using ATF2 as substrate in presence of [gamma-33P]ATP at 1 uM after 40 mins by scintillation counter method.
Assay [15] addresses Mitogen-activated protein kinase 10 (Homo sapiens) (UniProt P53779). The assay is described as follows: Inhibition of human JNK3 using substrate in presence of [gamma-33P]ATP at 1 uM after 40 mins by scintillation counter method.
For assay [16], the target named is Cyclin-dependent kinase 1/cyclin B1 (Homo sapiens, UniProt P06493). The assay is described as follows: Inhibition of human CDK1/cyclinB using Histone H1 as substrate in presence of [gamma-33P]ATP after 40 mins by scintillation counter method. Type of assay: protein-complex assay.
In assay [17] the target is PI3K p110 beta/p85 alpha (Homo sapiens) (UniProt P27986+P42338). The assay is described as follows: Inhibition of human PI3K p110beta/pI3K p85alpha at 1 uM using PIP2 as substrate in presence of biotinylated PIP3 and ATP and measured after 30 mins by HTRF method. Type of assay: protein-complex assay.
Chain of PI3K p110 beta/p85 alpha (Homo sapiens) (P27986 2-724 limits assumed): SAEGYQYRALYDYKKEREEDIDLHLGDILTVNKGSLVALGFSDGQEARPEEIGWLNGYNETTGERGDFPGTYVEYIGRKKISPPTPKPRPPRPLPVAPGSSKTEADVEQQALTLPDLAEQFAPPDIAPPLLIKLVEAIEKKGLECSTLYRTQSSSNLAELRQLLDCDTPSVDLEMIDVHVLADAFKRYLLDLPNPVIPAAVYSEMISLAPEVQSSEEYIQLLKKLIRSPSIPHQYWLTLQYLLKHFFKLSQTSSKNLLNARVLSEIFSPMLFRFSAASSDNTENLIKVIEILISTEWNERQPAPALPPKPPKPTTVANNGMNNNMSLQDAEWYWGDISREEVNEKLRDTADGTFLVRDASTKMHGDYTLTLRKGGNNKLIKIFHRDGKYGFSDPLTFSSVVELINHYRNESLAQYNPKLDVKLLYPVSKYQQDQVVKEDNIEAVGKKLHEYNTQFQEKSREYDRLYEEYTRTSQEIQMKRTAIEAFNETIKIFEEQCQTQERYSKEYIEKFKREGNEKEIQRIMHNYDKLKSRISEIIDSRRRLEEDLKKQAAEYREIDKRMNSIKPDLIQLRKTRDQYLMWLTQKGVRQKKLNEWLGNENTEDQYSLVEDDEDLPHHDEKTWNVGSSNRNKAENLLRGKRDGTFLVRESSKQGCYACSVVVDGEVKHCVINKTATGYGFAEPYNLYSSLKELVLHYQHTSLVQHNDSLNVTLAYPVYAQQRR
Chain of PI3K p110 beta/p85 alpha (Homo sapiens) (P42338 whole entry partner): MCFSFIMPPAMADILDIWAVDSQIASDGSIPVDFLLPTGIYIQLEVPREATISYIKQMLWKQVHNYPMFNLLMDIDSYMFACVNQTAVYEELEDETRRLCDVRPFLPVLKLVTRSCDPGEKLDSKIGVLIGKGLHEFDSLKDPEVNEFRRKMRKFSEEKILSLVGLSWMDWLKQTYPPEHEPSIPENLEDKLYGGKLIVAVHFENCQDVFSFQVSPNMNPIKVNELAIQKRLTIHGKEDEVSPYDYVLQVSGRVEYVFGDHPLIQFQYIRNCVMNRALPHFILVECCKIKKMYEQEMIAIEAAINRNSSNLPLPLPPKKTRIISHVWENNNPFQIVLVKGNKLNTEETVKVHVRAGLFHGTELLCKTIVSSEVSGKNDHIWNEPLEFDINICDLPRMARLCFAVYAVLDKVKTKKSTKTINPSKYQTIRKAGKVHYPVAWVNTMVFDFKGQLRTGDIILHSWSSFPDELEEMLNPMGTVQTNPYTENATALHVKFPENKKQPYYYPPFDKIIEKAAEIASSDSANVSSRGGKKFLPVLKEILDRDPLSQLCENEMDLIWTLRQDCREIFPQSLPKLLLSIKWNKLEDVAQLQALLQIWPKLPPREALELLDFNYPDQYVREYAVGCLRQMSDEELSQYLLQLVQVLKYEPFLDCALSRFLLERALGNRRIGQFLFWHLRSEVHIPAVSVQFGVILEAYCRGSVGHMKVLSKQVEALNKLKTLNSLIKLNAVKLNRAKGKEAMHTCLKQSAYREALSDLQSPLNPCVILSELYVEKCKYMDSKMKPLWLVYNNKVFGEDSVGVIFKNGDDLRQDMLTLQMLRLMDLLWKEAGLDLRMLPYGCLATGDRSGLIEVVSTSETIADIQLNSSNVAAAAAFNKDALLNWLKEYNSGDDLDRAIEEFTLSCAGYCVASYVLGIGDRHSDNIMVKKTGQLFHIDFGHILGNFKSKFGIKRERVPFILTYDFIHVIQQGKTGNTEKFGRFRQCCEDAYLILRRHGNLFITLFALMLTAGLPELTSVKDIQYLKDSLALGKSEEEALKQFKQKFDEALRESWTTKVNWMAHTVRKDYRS

Chain of Serine/threonine-protein kinase PLK1 (Homo sapiens) (P53350 whole entry): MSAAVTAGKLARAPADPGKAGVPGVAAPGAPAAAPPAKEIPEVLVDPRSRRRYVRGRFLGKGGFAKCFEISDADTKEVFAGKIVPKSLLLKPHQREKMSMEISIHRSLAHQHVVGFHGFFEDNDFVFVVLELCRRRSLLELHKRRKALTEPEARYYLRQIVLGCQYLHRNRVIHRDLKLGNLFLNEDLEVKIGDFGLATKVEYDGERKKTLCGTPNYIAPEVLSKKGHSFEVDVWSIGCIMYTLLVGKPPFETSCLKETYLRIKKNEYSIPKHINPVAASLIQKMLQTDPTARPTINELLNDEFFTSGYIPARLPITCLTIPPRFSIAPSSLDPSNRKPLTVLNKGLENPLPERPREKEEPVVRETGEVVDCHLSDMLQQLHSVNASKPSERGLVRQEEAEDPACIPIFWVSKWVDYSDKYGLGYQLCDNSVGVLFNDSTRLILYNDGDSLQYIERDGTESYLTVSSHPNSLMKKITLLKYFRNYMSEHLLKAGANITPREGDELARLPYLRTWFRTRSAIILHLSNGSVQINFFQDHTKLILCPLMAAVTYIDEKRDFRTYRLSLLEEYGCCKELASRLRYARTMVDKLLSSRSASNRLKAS
Chain of Mitogen-activated protein kinase 10 (Homo sapiens) (P53779 whole entry): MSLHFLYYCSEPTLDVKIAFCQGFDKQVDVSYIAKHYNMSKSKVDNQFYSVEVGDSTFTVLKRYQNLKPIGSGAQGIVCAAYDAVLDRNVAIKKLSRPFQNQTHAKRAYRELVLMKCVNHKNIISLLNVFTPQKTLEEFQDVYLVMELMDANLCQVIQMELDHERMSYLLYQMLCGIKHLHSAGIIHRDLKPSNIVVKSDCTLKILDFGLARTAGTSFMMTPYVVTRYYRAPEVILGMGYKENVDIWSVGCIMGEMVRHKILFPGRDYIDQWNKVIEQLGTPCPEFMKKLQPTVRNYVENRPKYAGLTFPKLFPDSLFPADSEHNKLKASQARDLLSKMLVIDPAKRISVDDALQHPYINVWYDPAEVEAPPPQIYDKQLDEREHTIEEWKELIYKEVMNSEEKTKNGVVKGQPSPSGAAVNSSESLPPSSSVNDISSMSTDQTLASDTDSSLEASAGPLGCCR

In general, inhibition refers to the change of the read-out against control, counted positive when it falls. Broadly, the IC50 is the concentration needed to halve the response being measured. `CC(C)n1cnc2c(Nc3cccc(Cl)c3)nc(N[C@H]3CCCC[C@@H]3N)nc21`: the inhibition in [1] was 10%; in [2] it was 49%; in assay [3] it was 2%; in assay [4], -2%; in assay [5], 19%; in assay [6], 10%. Besides, the inhibition is 2% in [8]; 1% in assay [9]; 22% in [10]; 0% in assay [11]; 5% in assay [12]; -6% in assay [13]. The inhibition stood at 3% in [14], 6% in assay [15] and 5% in assay [17]. In addition, the fold change (FC) in assay [7] is over 3. In [16], the IC50 is over 1000 nM.

Regarding `CC(C)n1cnc2c(Nc3cccc(Cl)c3)nc(N[C@@H]3CCCC[C@@H]3N)nc21`, the inhibition in [1] worked out at 8%; in assay [2] it was 9%; in [3], 5%; in assay [4], 2%; in assay [5], 90%; in assay [6], 21%. For the same compound, the inhibition in [8] came out at 3%; in assay [9], 4%; in assay [10] it was 69%; in assay [11], 4%; in assay [12] it was 28%; in assay [13], 2%. Further, the inhibition in [14] is -1%; in assay [15], -5%; in assay [17] it was 4%. The fold change (FC) in assay [7] was over 3. Further, the half-maximal inhibitory concentration (IC50) in [16] was found to be 674 nM.

Regarding `CC(C)n1cnc2c(Nc3cc(N)cc(Cl)c3)nc(N[C@@H]3CCCC[C@@H]3N)nc21` (racemic), the inhibition is 6% in assay [1]; 60% in assay [2]; 1% in assay [3]; 8% in assay [4]; 93% in assay [5]; 5% in assay [6]. In addition, the inhibition in assay [8] was 0%; in [9] it was -6%; in assay [10] it was 78%; in assay [11], 0%; in assay [12], 19%; in [13] it was 8%. The inhibition is -6% in assay [14], -10% in assay [15] and 4% in assay [17]. Moreover, in assay [7], the fold change (FC) was over 3.
